According to the supplement of paper PMC10307832:

Legend:
Assay in all cases: relative viability (nuclei count vs DMSO), 5 days (fraction); higher = more cells survive
IMD-0354 = compound: O=C(Nc1cc(C(F)(F)F)cc(C(F)(F)F)c1)c1cc(Cl)ccc1O [IMD-0354]
Method in brief: (§1)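 Hoechst staining, done together with fixation and permeabilisation, marked nuclei for 4× imaging and MetaXpress counting. This followed 5 days without medium change after lung cancer cell lines, kept overnight at 37 °C in 1536-well plates, were pinned with five library-drug doses (not always all listed) spaced by √10 on vehicle-anchored plates. Viability is the ratio of treated-well to vehicle-well nuclei, expressed as a median across plates. Plates passed only at control CV below 25% with at least one doubling.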

CX-5461 = compound: Cc1cnc(CNC(=O)c2c(=O)c3ccc(N4CCCN(C)CC4)nc3n3c2sc2ccccc23)cn1 [CX-5461]
Method in brief: as §1

IMD-0354 + Pemetrexed = compound: O=C(Nc1cc(C(F)(F)F)cc(C(F)(F)F)c1)c1cc(Cl)ccc1O [IMD-0354] + Nc1nc2[nH]cc(CCc3ccc(C(=O)N[C@@H](CCC(=O)O)C(=O)O)cc3)c2c(=O)[nH]1 [Pemetrexed] (partner 0.2 µM)
Method in brief: (§2)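 Medians of duplicate plates are given as relative viability. That measure is the nuclei count in treated wells divided by the count in vehicle wells. Counts were taken on 4× images of lung cancer cell lines in 1536-well plates, 5 days after pin-tool dosing the day after seeding with one drug alone or a fixed anchor-drug dose plus five library-drug doses (not always all listed) in √10 steps.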

CX-5461 + OSI-027 = compound: Cc1cnc(CNC(=O)c2c(=O)c3ccc(N4CCCN(C)CC4)nc3n3c2sc2ccccc23)cn1 [CX-5461] + COc1cccc2cc(-c3nc([C@H]4CC[C@H](C(=O)O)CC4)n4ncnc(N)c34)[nH]c12 [OSI-027] (partner 0.5 µM)
Method in brief: as §2

| Cell Line | relative viability (IMD-0354; 0.04 µM) | relative viability (IMD-0354; 0.1265 µM) | relative viability (IMD-0354; 0.4 µM) | relative viability (IMD-0354; 1.265 µM) | relative viability (IMD-0354; 4 µM) | relative viability (CX-5461; 0.01 µM) | relative viability (CX-5461; 0.03162 µM) | relative viability (CX-5461; 0.1 µM) | relative viability (CX-5461; 0.3162 µM) | relative viability (CX-5461; 1 µM) | relative viability (IMD-0354 + Pemetrexed; first compound 0.04 µM) | relative viability (IMD-0354 + Pemetrexed; first compound 0.1265 µM) | relative viability (IMD-0354 + Pemetrexed; first compound 0.4 µM) | relative viability (IMD-0354 + Pemetrexed; first compound 1.265 µM) | relative viability (IMD-0354 + Pemetrexed; first compound 4 µM) | relative viability (CX-5461 + OSI-027; first compound 0.01 µM) | relative viability (CX-5461 + OSI-027; first compound 0.03162 µM) | relative viability (CX-5461 + OSI-027; first compound 0.1 µM) | relative viability (CX-5461 + OSI-027; first compound 0.3162 µM) | relative viability (CX-5461 + OSI-027; first compound 1 µM) |
| --- | --- | --- | --- | --- | --- | --- | --- | --- | --- | --- | --- | --- | --- | --- | --- | --- | --- | --- | --- | --- |
| 201T | 1.1 | 1.15 | 0.563 | 0.725 | 0.324 | 0.985 | 1 | 0.986 | 0.985 | 0.936 | 0.271 | 0.343 | 0.368 | 0.319 | 0.234 | 0.911 | 0.669 | 0.726 | 0.502 | 0.552 |
| A549 | 1.11 | 0.991 | 0.496 | 0.229 | 0.109 | 0.969 | 0.96 | 0.748 | 0.811 | 0.193 | – | – | – | – | – | – | – | – | – | – |
| A-427 | 1.26 | 1.01 | 0.434 | 0.153 | 0.134 | 1.06 | 1.1 | 1.06 | – | 0.748 | 1.08 | 0.982 | 0.531 | 0.157 | 0.169 | 0.488 | 0.534 | 0.542 | – | 0.378 |
| ABC-1 | 1.07 | 1.05 | 0.498 | 0.222 | 0.259 | 1.04 | 0.785 | 0.712 | 0.309 | 0.568 | – | – | – | – | – | 0.465 | 0.562 | 0.251 | – | 0.362 |
| BEN | 1.22 | 0.903 | 0.64 | 0.463 | 0.277 | 1.04 | 1 | 1.06 | 0.979 | 0.937 | 0.815 | 0.758 | 0.506 | 0.373 | 0.322 | 0.346 | 0.321 | 0.286 | 0.281 | 0.284 |
| CAL-12T | 1.07 | 0.922 | 0.545 | 0.251 | 0.162 | 1.02 | 0.994 | 0.947 | 0.936 | 0.662 | 1.37 | 0.916 | 0.574 | 0.559 | 0.204 | 0.587 | 0.693 | 0.389 | 0.679 | 0.347 |
| COR-L23 | 0.922 | 1 | 0.422 | 0.13 | 0.14 | 1.03 | 1.07 | 0.758 | 0.973 | 0.583 | 0.205 | 0.202 | 0.206 | 0.182 | 0.108 | 0.802 | 0.808 | 0.7 | 0.835 | 0.472 |
| COR-L 105 | 1.05 | 0.832 | 0.738 | 0.463 | 0.293 | 0.933 | 0.894 | 0.82 | 0.607 | 0.508 | 1.14 | 1.23 | 0.802 | 0.699 | 0.402 | 0.767 | 0.665 | 0.532 | 0.391 | 0.445 |
| Calu-6 | 0.947 | 0.913 | 0.648 | 0.181 | 0.125 | 1.08 | 1.07 | 1.03 | 0.987 | 0.385 | – | – | – | – | – | – | – | – | – | – |
| ChaGo-K-1 | 1.12 | 1.08 | 0.751 | 0.339 | 0.267 | 1.02 | 0.967 | 1.04 | 0.571 | 0.552 | 0.26 | 0.259 | 0.269 | 0.23 | 0.208 | 0.578 | 0.636 | 0.537 | 0.331 | 0.315 |
| EBC-1 | 0.914 | 0.971 | 0.585 | 0.304 | 0.205 | 1.01 | 1.05 | 1.08 | 0.907 | 0.782 | – | – | – | – | – | – | – | – | – | – |
| EKVX | 1 | 0.972 | 0.589 | 0.915 | 0.358 | 1.11 | 1.05 | 1.05 | 0.677 | 0.915 | 0.456 | 0.347 | – | 0.234 | 0.201 | 0.745 | 0.676 | 0.786 | 0.734 | 0.688 |
| EMC-BAC-2 | 1.02 | 0.962 | 0.675 | 0.425 | 0.383 | 0.962 | 0.909 | 0.769 | 0.818 | 0.488 | 0.398 | 0.399 | 0.338 | 0.319 | 0.306 | 0.334 | 0.376 | 0.338 | 0.322 | 0.242 |
| EPLC-272H | 1.21 | 1.08 | 0.717 | 0.442 | 0.16 | 0.994 | 0.886 | 0.901 | – | 0.922 | 0.332 | 0.278 | 0.474 | 0.247 | 0.214 | 0.259 | 0.288 | 0.297 | – | 0.31 |
| H3255 | 0.911 | 1.01 | 0.621 | 0.601 | 0.362 | 1.02 | 0.94 | 0.921 | 0.609 | 0.909 | 0.588 | 0.587 | 0.518 | 0.426 | 0.318 | 0.568 | 0.542 | 0.559 | 0.543 | 0.568 |
| HARA | 1.17 | 0.88 | 0.537 | 0.154 | 0.205 | 1.01 | 1.03 | 0.957 | 0.728 | 0.713 | 0.318 | 0.271 | 0.207 | 0.202 | 0.151 | 0.616 | 0.572 | 0.423 | – | 0.319 |
| HCC-15 | 0.949 | 0.935 | 0.663 | 0.16 | 0.15 | 1.01 | 1.08 | 0.978 | 0.833 | 0.689 | 0.211 | 0.215 | 0.198 | 0.175 | 0.172 | 0.692 | 0.71 | 0.66 | 0.554 | 0.253 |
| HCC-44 | 0.967 | 1.03 | 0.497 | 0.301 | 0.194 | 0.956 | 0.998 | 0.964 | 0.98 | 0.839 | 0.733 | 0.692 | 0.595 | 0.354 | 0.344 | 0.564 | 0.623 | 0.6 | 0.51 | 0.366 |
